{"source": "patent US20230159449A1", "about": "“LIPID FORMULATIONS CONTAINING NUCLEIC ACIDS AND METHODS OF TREATMENT FOR CYSTIC FIBROSIS” (Arcturus Therapeutics, Inc., priority 2021, published 2023)", "tested_on": "FRT cells", "assay": "Transepithelial conductance (Gt) in Air-Liquid Interface culture of transfected FRT cells", "format": "cell-based, rat", "settings": "FRT cells transfected with 2099.1 or 1835.1; sequential Forskolin, VX770, Inh-172", "experimental": "Further studies were conducted to assess the activity of hCFTR proteins expressed by selected mRNA constructs and whether these can properly open and close to allow proper ion transport. In these studies, an Air-Liquid Interface (ALI) cell culture model of FRT cells was used to transfect an unformulated subset of codon-optimized hCFTR mRNAs at different doses ranging from 0.5 μg-2 μg of mRNA (the 2 μg dose is not shown) into the FRT cells. ALI is a method of cell culture by which polarized cells are generated with their basal surfaces in contact with media, and the top of the cellular layer is exposed to the air. This model helps to mimic the cellular structure of in vivo airways. At 24 hours post-transfection, transepithelial conductance (Gt) of the cells over time was measured as an indicator of CFTR activity. Initially, Gt was measured with the transfected or control cells unperturbed. Then, a sequential process of CFTR activation (channel opening), enhancement (gating promotion) and closing of the CFTR channels was performed. The hCFTR constructs used in this study were 1835.1 (SEQ ID NO: 53), 2093.1 (SEQ ID NO: 66), 2095.1 (SEQ ID NO: 68), 2096.1 (SEQ ID NO: 69), and 2099.1 (SEQ ID NO: 72). In addition, controls were performed using a reference sequence of construct 764.1 (SEQ ID NO: 47) and untransfected cells. […]", "data": [{"smiles": "O=C(O)c1ccc(C=C2SC(=S)N(c3cccc(C(F)(F)F)c3)C2=O)cc1", "note": "[Inh-172, reference compound]", "values": [{"measurement": "change in Gt on introduction of the agent", "value": "decline in Gt"}]}, {"smiles": "CC(C)(C)c1cc(C(C)(C)C)c(NC(=O)c2c[nH]c3ccccc3c2=O)cc1O", "note": "[VX770, reference compound]", "values": [{"measurement": "change in Gt on introduction of the agent", "value": "second increase in Gt"}]}]}
